Laboratory results: patent US20240252677A1, “ONE-COMPONENT DELIVERY SYSTEM FOR NUCLEIC ACIDS” (The Trustees of the University of Pennsylvania, priority 2021, published 2024)

Experiments:
[1] = test system: liver; assay: In vivo mRNA delivery, IVIS imaging of organs: liver; set-up: species or system mice; key to Organs with luminescence: liver: strong: Strong meant the luminescence intensity in that organ was relatively high, compared to other organs; weak: Weak meant the luminescence intensity in that organ was relatively low, compared to other organs; conditions: for Organs with luminescence: liver: Table 17, mice, IVIS, 4-6 h after injection, intensity relative to other organs; for Organs with luminescence: liver (weak/strong): Table 14
Protocol: The exposure time was 1 min.
Tissue luminescence signal was measured on the IVIS imaging system using an exposure time of 60 seconds using medium binning (binning=8) to ensure that the signal obtained was within operative detection range. […] Bioluminescence imaging was performed as described above.
Tissue luminescence signal was measured on the IVIS imaging system using a certain exposure time (60, 30 or 15 seconds) and medium binning (binning=8) to ensure that the signal obtained was within operative detection range.

[2] = Dimensions (size, PDI) of DNPs co-assembled from IAJDs and Luc-mRNA by DLS; type: physicochemical
Method in brief: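 Hydrodynamic size and PDI were read by dynamic light scattering at 23 °C, 175° backscatter, 633 nm. Particles formed by fast injection of ethanolic IAJD stock (80 mg/mL) into nucleoside-modified luciferase mRNA (stock 4.0 mg/mL) in 10 mM acetate pH 4.0, 5 s vortex.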

[3] = Stability of DNPs by DLS after storage at 5° C.; type: physicochemical; set-up: key to Original size distribution type (DLS curve) / Size distribution type (DLS curve): U: DLS curve showed unimodal size distribution; B: DLS curve showed bimodal size distribution; M: DLS curve showed multimodal size distribution; conditions: for pH Sample: DNPs: IAJD 4.0 mg/mL + Luc-mRNA 0.1 mg/mL, injection in acetate buffer pH 4.00; for PDI / Size (d, nm) / Original size distribution type (DLS curve): IAJD 4.0 mg/mL + Luc-mRNA 0.1 mg/mL; for PDI / Size (d, nm): acetate buffer; for Original size distribution type (DLS curve): before storage, acetate buffer pH 4.00
Method in brief: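 DNPs in acetate buffer sized by DLS after storage at 5 °C. Stability ranked Excellent, Good or Not stable according to retention, shrinkage or growth of original size and narrowing or broadening of size distribution.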

[4] = Table 16, DNPs from IAJD 4 mg/mL and Luc-mRNA 0.10 mg/mL by injection in acetate buffer (10 mM, pH 4.0)
[5] = Table 17, DNPs used in vivo, IAJD 4 mg/mL, Luc-mRNA 0.10 mg/mL, acetate pH 4.0
[6] = Table 12, DNPs, IAJD 4 mg/mL + Luc-mRNA 0.10 mg/mL, acetate buffer 10 mM pH 4.0
[7] = Table 13, DNPs, IAJD 4 mg/mL + Luc-mRNA 0.10 mg/mL, acetate buffer pH 4.0
[8] = Table 14, DNPs, IAJD 4 mg/mL + Luc-mRNA 0.10 mg/mL, acetate buffer pH 4.0

PDI [2, 5]	Size (d, nm) [2, 5] [nm]	PDI [2, 6]	Size (d, nm) [2, 6] [nm]	PDI [2, 7]	Size (d, nm) [2, 7] [nm]	PDI [2, 8]	Size (d, nm) [2, 8] [nm]	Structure (SMILES)	Organs with luminescence: liver [1]	Organs with luminescence: liver (weak/strong) ([1]; imaging 6 h after injection)	also measured
0.306	194	–	–	–	–	–	–	CCCCCCCCCCCCCCCOc1cc(COC(=O)CCCN2CCN(C)CC2)cc(OCCCCCCCCCCCCC)c1 [IAJD 145, 3-(pentadecyloxy)-5-(tridecyloxy)benzyl 4-(4-methylpiperazin-1-yl)butanoate]	liver (weak),	–	PDI [2, 4]: 0.306; Size (d, nm) [2, 4]: 194 nm; pH Sample [3]: 4.51; Size distribution type (DLS curve) ([3]; after 27 days at 5° C.): (U); PDI ([3]; after 27 days at 5° C.): 0.330; Size (d, nm) ([3]; after 27 days at 5° C.): 189 nm; Original size distribution type (DLS curve) [3]: (U)
0.203	235	–	–	–	–	–	–	CCCCCCCCCCCCCCOc1cc(COC(=O)CCCN2CCN(CCO)CC2)cc(OCCCCCCCCCCCCC)c1 [IAJD 172, 3-(Tetradecyloxy)-5-(tridecyloxy)benzyl 4-(4-(2-hydroxyethyl)piperazin-1-yl)butanoate]	liver (weak),	–	PDI [2, 4]: 0.203; Size (d, nm) [2, 4]: 235 nm; pH Sample [3]: 4.84; Size distribution type (DLS curve) ([3]; after 14 days at 5° C.): (U); PDI ([3]; after 14 days at 5° C.): 0.219; Size (d, nm) ([3]; after 14 days at 5° C.): 225 nm; Original size distribution type (DLS curve) [3]: (U)
0.407	429	–	–	–	–	–	–	CCCCCCCCCCCCCCCCCCOc1cc(COC(=O)CCCN2CCN(CCO)CC2)cc(OCCCCCCCCCCCCCCC)c1 [IAJD 154, 3-(Octadecyloxy)-5-(pentadecyloxy)benzyl 4-(4-(2-hydroxyethyl)piperazin-1-yl)butanoate]	liver (weak),	–	PDI [2, 4]: 0.407; Size (d, nm) [2, 4]: 429 nm; pH Sample [3]: 4.47; Size distribution type (DLS curve) ([3]; after 35 days at 5° C.): (B); PDI ([3]; after 35 days at 5° C.): 0.471; Size (d, nm) ([3]; after 35 days at 5° C.): 372 nm; Original size distribution type (DLS curve) [3]: (B)
0.300	255	–	–	–	–	–	–	CCCCCCCCCCCCCCOc1cc(COC(=O)CCCN2CCN(CCO)CC2)cc(OCCCCCCCCCCC)c1 [IAJD 125, 3-(Tetradecyloxy)-5-(undecyloxy)benzyl 4-(4-(2-hydroxyethyl)piperazin-1-yl)butanoate]	liver (weak),	–	PDI [2, 4]: 0.300; Size (d, nm) [2, 4]: 255 nm; pH Sample [3]: 4.44; Size distribution type (DLS curve) ([3]; after 62 days at 5° C.): (U); PDI ([3]; after 62 days at 5° C.): 0.283; Size (d, nm) ([3]; after 62 days at 5° C.): 276 nm; Original size distribution type (DLS curve) [3]: (U)
0.279	146	0.279	146	0.279	146	0.279	146	CCCCCCCCCCCCCCCCCCOc1cc(COC(=O)CCCN2CCN(C)CC2)cc(OCCCCCCCCCCCC)c1 [IAJD 107, 3-(Dodecyloxy)-5-(octadecyloxy)benzyl 4-(4-methylpiperazin-1-yl)butanoate]	liver (weak),	liver (weak),	–
–	–	0.571	277	0.571	277	0.571	277	CCCCCCCCCCCCCCCCCCOc1cc(COC(=O)CCCN2CCN(CCO)CC2)cc(OCCCCCCCCCCCCCCCCCC)c1 [IAJD 99, 3,5-Bis(octadecyloxy)benzyl 4-(4-(2-hydroxyethyl)piperazin-1-yl)butanoate]	–	liver (weak),	–
0.275	105	0.275	105	0.275	105	0.275	105	CCCCCCCCCCCCCCCCOc1cc(COC(=O)CCCN2CCN(C)CC2)cc(OCCCCCCCCCCCC)c1 [IAJD 106, 3-(Dodecyloxy)-5-(hexadecyloxy)benzyl 4-(4-methylpiperazin-1-yl)butanoate]	liver (weak),	liver (weak),	–

More lines, now with the values behind:

Structure (SMILES)	PDI [2, 5]	Size (d, nm) [2, 5] [nm]	PDI [2, 6]	Size (d, nm) [2, 6] [nm]	PDI [2, 7]	Size (d, nm) [2, 7] [nm]	PDI [2, 8]	Size (d, nm) [2, 8] [nm]	Organs with luminescence: liver [1]	Organs with luminescence: liver (weak/strong) ([1]; imaging 6 h after injection)	also measured
CCCCCCCCCCCCOc1cc(COC(=O)CCN2CCN(C)CC2)cc(OCCCCCCCCCCCC)c1 [IAJD 84, 3,5-Bis(dodecyloxy)benzyl 3-(4-methylpiperazin-1-yl)propanoate]	–	–	0.303	171	0.303	171	0.303	171	–	–	Organs with luminescence: liver (weak/strong) ([1]; imaging 5 h after injection): liver (weak),
CCCCCCCCOc1cc(COC(=O)CCCN2CCN(C)CC2)cc(OCCCCCCCC)c1 [IAJD 88, 3,5-Bis(octyloxy)benzyl 4-(4-methylpiperazin-1-yl)butanoate]	–	–	0.342	100	0.342	100	0.342	100	–	liver (weak),	–
CCCCCCCCCCCCCCCCOc1cc(COC(=O)CCCN2CCN(C)CC2)cc(OCCCCCCCCCCCCCCCC)c1 [IAJD 75, 3,5-Bis(hexadecyloxy)benzyl 4-(4-methylpiperazin-1-yl)butanoate]	–	–	0.328	235	0.328	235	0.328	235	–	–	Organs with luminescence: liver (weak/strong) ([1]; imaging 5 h after injection): liver (weak),
CCCCC(CC)COc1cc(COC(=O)CCCN2CCN(CCO)CC2)cc(OCC(CC)CCCC)c1 (centres unmarked) [IAJD 87, 3,5-Bis((2-ethylhexyl)oxy)benzyl 4-(4-(2-hydroxyethyl)piperazin-1-yl)butanoate]	–	–	0.486	146	0.486	146	0.486	146	–	liver (weak),	–
CCCCCCCCCCCCCCCCOc1cc(COC(=O)CCCN2CCN(C)CC2)cc(OCCCCCCCCCCC)c1 [IAJD 86, 3-(Hexadecyloxy)-5-(undecyloxy)benzyl 4-(4-methylpiperazin-1-yl)butanoate]	0.234	91	0.234	91	0.234	91	0.234	91	liver (strong),	–	Organs with luminescence: liver (weak/strong) ([1]; imaging 5 h after injection): liver (strong),
CCCCC(CC)COc1cc(COC(=O)CCCN2CCN(C)CC2)cc(OCC(CC)CCCC)c1OCC(CC)CCCC (centres unmarked) [IAJD 96, 3,4,5-Tris((2-ethylhexyl)oxy)benzyl 4-(4-methylpiperazin-1-yl)butanoate]	–	–	0.402	139	0.402	139	0.402	139	–	–	Organs with luminescence: liver (weak/strong) ([1]; imaging 5 h after injection): liver (weak),
CCCCCCCCOc1cc(COC(=O)CCCN2CCN(CCO)CC2)cc(OCCCCCCCC)c1 [IAJD 89]	–	–	0.467	149	0.467	149	0.467	149	–	liver (weak),	–
